From patent US9067857B2, “Fluorine-containing aromatic compound and manufacturing method therefor” (Asahi Glass Company, Limited, priority 2012, dated 2015) come the findings set out here.

This data set is described as follows: Solubility test of compound in various solvents (20 mg in 10 g solvent, visually judged). The class given is physicochemical. The conditions noted are these: 20 mg sample in 10 g solvent at room temperature (0.2% by mass). On the procedure:
<Solubility Test of Compound>
In order to investigate applicability of the compound (e) obtained in the above Example 4 to a wet process, a solubility test of the compound in various solvents was conducted. In addition, a solubility test of anthracene was also conducted as Reference Example 2.
Specifically, 20 mg of a sample was weighed and it was visually judged whether it dissolves in 10 g of a solvent at room temperature (0.2% by mass).
In Table 3, “Yes” represents “soluble” and “No” represents “insoluble”.

In the case of `c1ccc2cc3ccccc3cc2c1` [Anthracene, anthracene], the “Solubility in 1,2-Dichlorobenzene” value is “Yes (“Yes” represents “soluble”)”, the “Solubility in Chloroform” value is “Yes (“Yes” represents “soluble”)”, the “Solubility in Cyclohexane” value is recorded as “No (“No” represents “insoluble”)” and the “Solubility in Hexane” value is “No (“No” represents “insoluble”)”.

Take `FC(F)(F)C(F)(F)C(F)(F)C(F)(F)C(F)(F)C(F)(F)c1c2ccccc2c(C(F)(F)C(F)(F)C(F)(F)C(F)(F)C(F)(F)C(F)(F)F)c2ccccc12` [Compound (e), 9,10-bis(perfluorohexyl)anthracene]: the “Solubility in 1,2-Dichlorobenzene” value was “Yes (“Yes” represents “soluble”)”, the “Solubility in Chloroform” value is “Yes (“Yes” represents “soluble”)”, the “Solubility in Cyclohexane” value is listed as “Yes (“Yes” represents “soluble”)” and the “Solubility in Hexane” value is “Yes (“Yes” represents “soluble”)”.
